Measured values reported in patent US9364459B2, “3-(indolyl)- or 3-(azaindolyl)- 4-arylmaleimide derivatives for use in the treatment of colon and gastric adenocarcinoma” (Johannes Gutenberg-Universität Mainz, priority 2009, dated 2016).
One block for each compound: values may come before it.

Key:
HT-29 = assay: Nicoletti apoptosis assay in HT-29 cells; format: cell-based, human
Description: (§1) Nicoletti Apoptosis Assay by Cell Cycle Analysis
(§2) Cancer cells were transferred to 12-well flat-bottomed plates. […] Subsequently, cells were incubated in 1 ml medium containing various concentrations of test compounds at 37° C. with 5% CO2. After incubation the cells were washed with PBS, trypsinized, pelleted and mixed with PI buffer (containing 0.1% sodium citrate, 0.1% triton X-100, […] propidium iodide (PI)) and incubated for 1 hour at 4° C. Cell cycle sub-G1 fraction analysis was performed as described previously (Nicoletti, I. et al. (1991) J. Immunol. Methods 139, 271-279) using a flow cytometer (BD FACS Calibur™, BD Biosciences, Heidelberg, Germany). Each experiment was done in triplicate.

[1] = system: HT-29 human colon adenocarcinoma cells; assay: MTT viability assay in HT-29 cells; details: HT-29, 72 h, read-out: Viability of HT-29 cells as determined by MTT assay
Description: Evaluation of Effect on Viability (MTT Assay)
The antiproliferative activity of test compounds was determined by the 3-(4,5-dimethylthiazol-2-yl)-2,5-diphenyltetrazolium bromide (MTT) assay as described previously (Mosmann, T. et al. (1983) J. Immunol. Methods 65, 55-63). Cells in the exponential growth phase were transferred to 96-well flat-bottom plates. 10,000 viable cells contained in 200 μl cell suspension were plated into each well and incubated over night. Cells were then exposed to various concentrations of test compounds (100 μl/well) for 3 days at 37° C. with 5% CO2. Subsequently, 10 μl/well MTT stock solution (5 mg/ml; Biomol, Germany) was added and the cells were incubated at 37° C. with 5% CO2 for 4 hours. 100 μl solubilization solution (10% SDS in 0.01 M HCl) was added and the cells were incubated at 37° C. with 5% CO2 over night. Plates were read on an ELISA-Reader ELX 800 (BIO-TEK Software KC 4) at 562 nm absorbance. Each experiment was done in triplicate.
HCT-116, HT-29 and SW480 cells were cultured in RPMI1640 supplemented with 10% FCS. […] All cells were maintained at 37° C. and 5% CO2.

Caco-2 = assay: Nicoletti apoptosis assay in Caco-2 cells; format: cell-based, human
Description: as §1, §2

HUVEC = assay: Nicoletti apoptosis assay (sub-G1 fraction) in HUVEC; format: cell-based, human; details: 4 days, untreated 15.4 ± 1.5%
Description: as §1, §2
The same analysis was performed with HUVEC cells. 1.5×10^4 cells were plated into each well and treated with test compounds for 4 days.
Human Umbilical Vein Endothelial Cells (HUVEC) known for mitogenic specifity for VEGF were obtained from the Department of Pathology, University Hospital of Mainz, Germany. The cells were cultured in M199 supplemented with 20% FCS, 1% Pen/Strep, 0.34% GlutaMAX-I, 25 μg/ml Endothelial Cell Growth Supplement (BD Biosciences), 25 μg/ml Heparin sodium (179 USP units/mg; Sigma, Germany) and were maintained at 37° C. and 5% CO2.

SW480 = assay: Nicoletti apoptosis assay in SW480 cells; format: cell-based, human
Description: as §1, §2

HCT-116 = assay: Nicoletti apoptosis assay in HCT-116 cells; format: cell-based, human
Description: as §1, §2

GSK-3β = GSK-3β (Homo sapiens (Human), UniProt P49841); assay: GSK-3β kinase inhibition assay (Millipore IC50Profiler); format: biochemical
Source text: (§3) GSK-3β, VEGFR-2, FLT-3 Kinase Inhibition Assays
(§4) Detailed protocols can be found at: www.millipore.com/drugdiscovery/dd3/assayprotocols.

FLT-3 = FLT-3 (Homo sapiens (Human), UniProt P36888); assay: FLT-3 kinase inhibition assay (Millipore IC50Profiler); format: biochemical
Description: as §3
The effect of test compounds on the activity of the protein kinases GSK-3β, VEGFR-2 and FLT-3 was evaluated based on half maximal inhibitory concentration (IC50) values determined by Millipore UK Ltd; Gemini Crescent; Dundee Technology Park; Dundee DD2 1SW; UK (IC50Profiler). Detailed protocols can be found at: www.millipore.com/drugdiscovery/dd3/assayprotocols.

VEGFR-2 = VEGFR-2 (Homo sapiens (Human), UniProt P35968); assay: VEGFR-2 kinase inhibition assay (Millipore IC50Profiler); format: biochemical
Source text: as §3, §4

[2] = system: chick embryo microvessel formation; assay: Quantitative chick embryo in vivo assay of antiangiogenic activity; details: Gallus gallus; 26 nM drug concentration/pellet; 24 hours incubation; read-out: Inhibition of microvessel area
Description: Evaluation of Antiangiogenic Activity in a Quantitative Chick Embryo In Vivo Assay
The inhibition of angiogenesis (new blood vessel formation) was measured as described in WO2006/061212.

MKN-45 = assay: Nicoletti apoptosis assay in MKN-45 cells; format: cell-based, human
Description: as §1, §2

[3] = Table 8, HT-29, 7.9 μM test compound alone, drug-free control 3.4 ± 0.9%
[4] = Table 8, HT-29, 7.9 μM test compound plus 1.18 μM irinotecan
[5] = Table 6, 7.9 μM comp. A plus 1.18 μM irinotecan
[6] = Table 6, 7.9 μM compound A alone
[7] = Table 7, 7.9 μM compound A alone
[8] = Table 7, 7.9 μM compound A plus 20 nM topotecan
[9] = Table 6, 1.18 μM irinotecan alone

VEGFR-2, sequence (P35968 20-1356): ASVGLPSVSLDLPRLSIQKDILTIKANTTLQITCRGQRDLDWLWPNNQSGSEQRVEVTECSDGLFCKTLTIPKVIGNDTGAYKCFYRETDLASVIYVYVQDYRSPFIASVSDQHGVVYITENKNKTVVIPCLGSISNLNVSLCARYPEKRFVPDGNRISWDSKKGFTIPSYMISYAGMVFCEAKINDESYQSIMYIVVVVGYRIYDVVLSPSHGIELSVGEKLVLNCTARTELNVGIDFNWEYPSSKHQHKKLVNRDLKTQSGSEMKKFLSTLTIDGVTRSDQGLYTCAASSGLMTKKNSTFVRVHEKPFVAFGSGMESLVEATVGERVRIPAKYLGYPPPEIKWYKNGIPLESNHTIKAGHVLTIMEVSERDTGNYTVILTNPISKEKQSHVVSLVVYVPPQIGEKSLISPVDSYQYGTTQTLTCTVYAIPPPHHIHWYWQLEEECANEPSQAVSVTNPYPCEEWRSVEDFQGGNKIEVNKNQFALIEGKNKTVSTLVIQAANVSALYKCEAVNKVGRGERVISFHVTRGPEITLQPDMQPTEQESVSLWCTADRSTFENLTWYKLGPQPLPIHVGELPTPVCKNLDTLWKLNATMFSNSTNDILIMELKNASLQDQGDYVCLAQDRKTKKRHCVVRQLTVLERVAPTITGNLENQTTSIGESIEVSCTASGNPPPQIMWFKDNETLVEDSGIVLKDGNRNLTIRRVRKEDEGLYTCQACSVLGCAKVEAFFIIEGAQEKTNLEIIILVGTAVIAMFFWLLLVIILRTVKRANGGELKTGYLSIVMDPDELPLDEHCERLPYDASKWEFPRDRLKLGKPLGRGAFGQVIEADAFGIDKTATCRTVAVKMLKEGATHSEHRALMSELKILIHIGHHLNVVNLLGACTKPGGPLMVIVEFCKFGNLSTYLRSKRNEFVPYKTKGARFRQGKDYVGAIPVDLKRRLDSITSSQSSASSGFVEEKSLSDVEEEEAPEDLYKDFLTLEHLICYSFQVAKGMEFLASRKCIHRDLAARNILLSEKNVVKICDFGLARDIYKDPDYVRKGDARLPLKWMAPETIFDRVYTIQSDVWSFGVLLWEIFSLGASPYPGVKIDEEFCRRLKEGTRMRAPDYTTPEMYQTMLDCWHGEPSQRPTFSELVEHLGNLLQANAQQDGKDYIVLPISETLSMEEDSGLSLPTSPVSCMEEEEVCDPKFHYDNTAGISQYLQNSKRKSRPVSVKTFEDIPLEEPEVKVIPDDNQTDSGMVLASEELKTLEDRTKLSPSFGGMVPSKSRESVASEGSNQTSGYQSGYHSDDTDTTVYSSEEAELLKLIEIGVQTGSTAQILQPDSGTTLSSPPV
FLT-3, sequence (P36888 27-993): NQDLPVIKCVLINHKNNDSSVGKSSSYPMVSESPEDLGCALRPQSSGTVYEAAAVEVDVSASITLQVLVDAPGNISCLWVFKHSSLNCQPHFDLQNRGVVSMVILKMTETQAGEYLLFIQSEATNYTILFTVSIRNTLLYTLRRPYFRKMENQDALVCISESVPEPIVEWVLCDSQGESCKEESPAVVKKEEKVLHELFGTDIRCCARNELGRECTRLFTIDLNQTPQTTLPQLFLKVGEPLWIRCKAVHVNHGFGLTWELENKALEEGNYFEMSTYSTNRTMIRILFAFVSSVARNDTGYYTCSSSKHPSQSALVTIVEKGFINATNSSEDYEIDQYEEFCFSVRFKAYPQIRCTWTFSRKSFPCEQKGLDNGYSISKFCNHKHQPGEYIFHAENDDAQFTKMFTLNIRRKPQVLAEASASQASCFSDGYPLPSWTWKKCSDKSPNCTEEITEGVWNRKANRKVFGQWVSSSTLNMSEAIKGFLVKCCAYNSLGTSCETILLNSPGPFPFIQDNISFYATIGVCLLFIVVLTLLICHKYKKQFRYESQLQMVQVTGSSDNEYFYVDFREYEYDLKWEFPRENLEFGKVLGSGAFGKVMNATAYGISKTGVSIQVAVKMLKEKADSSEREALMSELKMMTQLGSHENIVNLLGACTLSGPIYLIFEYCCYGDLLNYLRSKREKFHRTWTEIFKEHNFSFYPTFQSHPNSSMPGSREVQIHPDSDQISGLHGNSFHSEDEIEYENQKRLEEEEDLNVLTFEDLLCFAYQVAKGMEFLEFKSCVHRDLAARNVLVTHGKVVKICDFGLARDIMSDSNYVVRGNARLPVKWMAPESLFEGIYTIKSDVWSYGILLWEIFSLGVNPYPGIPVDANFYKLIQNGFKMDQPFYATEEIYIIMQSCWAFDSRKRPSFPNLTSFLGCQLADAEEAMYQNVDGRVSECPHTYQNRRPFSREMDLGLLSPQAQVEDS
GSK-3β, sequence (P49841 whole entry): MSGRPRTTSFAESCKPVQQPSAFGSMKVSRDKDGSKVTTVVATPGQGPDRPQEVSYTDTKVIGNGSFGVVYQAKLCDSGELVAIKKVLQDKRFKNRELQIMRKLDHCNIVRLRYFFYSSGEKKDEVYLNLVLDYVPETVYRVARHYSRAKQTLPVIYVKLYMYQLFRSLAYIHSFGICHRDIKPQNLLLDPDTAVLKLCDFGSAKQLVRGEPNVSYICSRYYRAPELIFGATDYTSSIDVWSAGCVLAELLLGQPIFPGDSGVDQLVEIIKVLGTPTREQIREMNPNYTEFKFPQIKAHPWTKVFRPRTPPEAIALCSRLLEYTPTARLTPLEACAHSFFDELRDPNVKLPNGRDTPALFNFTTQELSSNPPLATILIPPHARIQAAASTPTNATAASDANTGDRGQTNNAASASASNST

SMILES: COc1cc(C2=C(c3c[nH]c4ccccc34)C(=O)NC2=O)cc(OC)c1OC [A, 3-(1H-indol-3-yl)-4-(3,4,5-trimethoxyphenyl)-maleinimid]
Combined effect of compound A and low dosed irinotecan on apoptosis, in words (HT-29; HT-29): Significant synergistic effects
Combined effect of compound A and topotecan on apoptosis, in words (HT-29; HT-29): synergistically inhibited apoptosis
Induction of apoptosis in combination with irinotecan compared with vandetanib or sunitinib, in words (HT-29; HT-29, 7 days combination treatment with irinotecan): greater induction of apoptosis
Sub-G1 Fraction (HT-29; Table 6, HT-29, 7.9 μM comp. A plus 1.18 μM irinotecan): 57.40 ± 1.6%
Sub-G1 Fraction (HT-29; Table 6, HT-29, 7.9 μM compound A alone): 5.90 ± 0.6%
Sub-G1 Fraction (HT-29; Table 7, HT-29, 7.9 μM compound A alone): 5.9 ± 0.6%
Sub-G1 Fraction (HT-29; Table 7, HT-29, 7.9 μM compound A plus 20 nM topotecan): 65.6 ± 1.8%
Sub-G1 Fraction (HT-29; [3]): 4.70 ± 0.50%
Sub-G1 Fraction (HT-29; [4]): 53.10 ± 3.30%
Sub-G1 Fraction (HT-29; Table 9, HT-29, 7.9 μM compound A plus 1.18 μM Irinotecan, 7 days): 49.8 ± 1.30%
Sub-G1 Fraction (HT-29; Table 9, HT-29, single-agent treatment, 7.9 μM compound A, 7 days): 8.9 ± 0.8%
viability at 2.6 µM [1]: 78.5 ± 3.7%
viability at 7.9 µM [1]: 62.9 ± 1.5%
viability at 26 µM [1]: 53.9 ± 4.8%
viability at 52 µM [1]: 42.8 ± 1.6%
Combined effect of compound A and low dosed irinotecan on apoptosis, in words (Caco-2): Significant synergistic effects
Sub-G1 Fraction (Caco-2; [5]): 43.70 ± 2.2%
Sub-G1 Fraction (Caco-2; [6]): 6.00 ± 2.3%
Sub-G1 Fraction (Caco-2; [7]): 5.9 ± 0.6%
Sub-G1 Fraction (Caco-2; [8]): 52.07 ± 2.84%
Sub-G1 Fraction (HUVEC; 0.79 μM): 25. ± 0.9%
Sub-G1 Fraction (HUVEC; 2.6 μM): 87.7 ± 2.3%
Sub-G1 Fraction (HUVEC; 7.9 μM): 88.9 ± 4.0%
Combined effect of compound A and low dosed irinotecan on apoptosis, in words (SW480): Significant synergistic effects
Sub-G1 Fraction (SW480; [5]): 32.21 ± 0.40%
Sub-G1 Fraction (SW480; [6]): 9.96 ± 2.3%
Sub-G1 Fraction (SW480; [7]): 10 ± 2.3%
Sub-G1 Fraction (SW480; [8]): 38.81 ± 0.88%
Combined effect of compound A and low dosed irinotecan on apoptosis, in words (HCT-116): Significant synergistic effects
Sub-G1 Fraction (HCT-116; [5]): 27.90 ± 3.4%
Sub-G1 Fraction (HCT-116; [6]): 3.70 ± 2.8%
IC50 (GSK-3β): 1100 nM
IC50 (FLT-3): 166 nM
FLT-3 inhibition, in words (FLT-3; Table 2): most significantly inhibited
IC50 (VEGFR-2): 90 nM
VEGFR-2 IC50 values, in words (VEGFR-2; Table 2): low nanomolar range
inhibition at 0.026 µM [2]: 82%
Sub-G1 Fraction (MKN-45; [5]): 51.44 ± 0.2%
Sub-G1 Fraction (MKN-45; [6]): 20.16 ± 1.6%
Sub-G1 Fraction (MKN-45; [7]): 20.2 ± 1.6%
Sub-G1 Fraction (MKN-45; [8]): 61.1 ± 1.2%

melting point: 232 to 233 °C
IC50 (VEGFR-2): 182 nM
SMILES: COc1cc(C2=C(c3c[nH]c4ccc(F)cc34)C(=O)NC2=O)cc(OC)c1OC [O, 3-(5-Fluoro-1H-indol-3-yl)-4-(3,4,5-trimethoxyphenyl)-maleinimide]
Activity in combination with irinotecan relative to compound A, in words (HT-29; HT-29 cells, combination with irinotecan): at least comparable with compound A
Sub-G1 Fraction (HT-29; [3]): 3.26 ± 2.14%
Sub-G1 Fraction (HT-29; [4]): 49.69 ± 2.96%
viability at 2.6 µM [1]: 47.83 ± 0.34%
viability at 7.9 µM [1]: 35.5 ± 0.71%
viability at 26 µM [1]: 42.1 ± 0.58%
viability at 52 µM [1]: 17.6 ± 1.81%
Sub-G1 Fraction (HUVEC; 0.79 μM): 16.0 ± 1.2%
Sub-G1 Fraction (HUVEC; 2.6 μM): 73.3 ± 3.2%
Sub-G1 Fraction (HUVEC; 7.9 μM): 90.6 ± 5.4%
inhibition at 0.026 µM [2]: 63%

SMILES: CCc1c2c(nc3ccc(OC(=O)N4CCC(N5CCCCC5)CC4)cc13)-c1cc3c(c(=O)n1C2)COC(=O)[C@]3(O)CC [irinotecan, reference compound]
Sub-G1 Fraction (HT-29; Table 6, HT-29, 1.18 μM irinotecan alone): 17.40 ± 0.98%
Induction of apoptosis under irinotecan single application (Sub-G1 Fraction) (HT-29; Table 8, HT-29): Induction of apoptosis under irinotecan single application 18.3 ± 1.1%
Induction of apoptosis under irinotecan single application (Sub-G1 Fraction) (HT-29; Table 9, HT-29): Induction of apoptosis under irinotecan single application 17.4 ± 0.6%
Sub-G1 Fraction (Caco-2; [9]): 18.80 ± 0.8%
Sub-G1 Fraction (SW480; [9]): 9.61 ± 0.91%
Sub-G1 Fraction (HCT-116; [9]): 9.86 ± 2.4%
Sub-G1 Fraction (MKN-45; [9]): 28.97 ± 1.15%

SMILES: CC[C@@]1(O)C(=O)OCc2c1cc1n(c2=O)Cc2cc3c(CN(C)C)c(O)ccc3nc2-1 [topotecan, reference compound]
Sub-G1 Fraction (HT-29; Table 7, HT-29, 20 nM topotecan alone): 7.9 ± 0.8%
Sub-G1 Fraction (Caco-2; Table 7, 20 nM topotecan alone): 31.5 ± 0.08%
Sub-G1 Fraction (SW480; Table 7, 20 nM topotecan alone): 13.34 ± 0.3%
Sub-G1 Fraction (MKN-45; Table 7, 20 nM topotecan alone): 26.15 ± 0.49%
